{"source": "patent US12578343B2", "about": "“Selective ACKR3 modulators and uses thereof” (Luxembourg Institute of Health (LIH), priority 2019, dated 2026)", "key": {"MOR": {"molecular_target": "T1, MOR (Homo sapiens, UniProt P35372)", "T1 construct": "expressed in transfected cells; host or cells: U87 cells, transient co-transfection of pNBe vectors", "T1 sequence (P35372 whole entry, the tested form may be a part)": "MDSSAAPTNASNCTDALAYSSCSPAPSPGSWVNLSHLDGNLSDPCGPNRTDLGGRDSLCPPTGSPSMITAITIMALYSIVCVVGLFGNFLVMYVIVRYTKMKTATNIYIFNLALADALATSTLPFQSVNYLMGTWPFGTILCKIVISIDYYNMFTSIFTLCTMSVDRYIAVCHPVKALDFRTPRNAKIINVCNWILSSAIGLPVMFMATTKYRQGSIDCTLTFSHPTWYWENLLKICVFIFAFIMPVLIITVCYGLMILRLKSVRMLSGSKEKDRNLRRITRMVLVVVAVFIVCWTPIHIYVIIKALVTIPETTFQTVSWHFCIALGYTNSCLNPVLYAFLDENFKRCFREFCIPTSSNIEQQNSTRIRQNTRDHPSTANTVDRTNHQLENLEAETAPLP", "assay_type": "cell-based", "conditions": "concentrations as high as 3 μM", "procedure": "(§1) In brief, 1.2×10^6 U87 cells were plated in 10 cm-culture dishes and 48 hours later co-transfected with pNBe vectors encoding GPCRs C-terminally tagged to SmBiT and human β-arrestin-1 or -2 or mini G proteins (mG, engineered GTPase domains of Gα subunits,) N-terminally fused to LgBiT. 48 hours post-transfection cells were harvested, incubated 25 minutes at 37° C. with Nano-Glo Live Cell substrate diluted 200-fold and distributed into white 96-well plates (5×10^4 cells per well). Ligand-induced, β-arrestin and mG recruitment to GPCRs was evaluated with a Mithras LB940 luminometer (Berthold Technologies) for 20 minutes. For concentration-response curves, the signal recorded with a saturating concentration of full agonist for each receptor was set as 100%."}, "DOR": {"molecular_target": "T2, DOR (Homo sapiens, UniProt P41143)", "T2 construct": "expressed in transfected cells; host or cells: U87 cells, transient co-transfection of pNBe vectors", "T2 sequence (P41143 whole entry)": "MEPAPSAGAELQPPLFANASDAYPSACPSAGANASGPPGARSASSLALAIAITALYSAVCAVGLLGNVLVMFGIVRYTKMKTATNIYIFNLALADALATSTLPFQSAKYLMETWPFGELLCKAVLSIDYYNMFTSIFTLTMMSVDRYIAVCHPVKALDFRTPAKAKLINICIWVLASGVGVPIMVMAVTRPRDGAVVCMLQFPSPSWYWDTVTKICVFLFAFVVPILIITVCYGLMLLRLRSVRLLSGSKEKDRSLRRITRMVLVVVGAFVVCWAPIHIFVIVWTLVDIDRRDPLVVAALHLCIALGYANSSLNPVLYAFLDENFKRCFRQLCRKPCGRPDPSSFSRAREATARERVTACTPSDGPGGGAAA", "assay": "β-arrestin-1 recruitment to DOR (NanoBiT, U87 cells)", "assay_type": "cell-based", "conditions": "concentrations as high as 3 μM", "procedure": "as §1"}, "NOP": {"molecular_target": "T3, NOP (Homo sapiens, UniProt P41146)", "T3 construct": "expressed in transfected cells; host or cells: U87 cells, transient co-transfection of pNBe vectors", "T3 sequence (P41146 whole entry)": "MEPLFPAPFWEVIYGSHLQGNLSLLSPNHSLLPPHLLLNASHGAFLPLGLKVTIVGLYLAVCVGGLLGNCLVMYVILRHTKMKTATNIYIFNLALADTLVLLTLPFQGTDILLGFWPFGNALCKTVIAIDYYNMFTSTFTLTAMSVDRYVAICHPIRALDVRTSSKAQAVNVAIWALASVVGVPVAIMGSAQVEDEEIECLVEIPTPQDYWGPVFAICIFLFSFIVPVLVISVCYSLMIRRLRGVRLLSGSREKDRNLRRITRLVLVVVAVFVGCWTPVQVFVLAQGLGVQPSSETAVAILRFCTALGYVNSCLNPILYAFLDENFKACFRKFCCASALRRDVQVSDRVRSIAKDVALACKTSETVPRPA", "assay": "β-arrestin-1 recruitment to NOP (NanoBiT, U87 cells)", "assay_type": "cell-based", "conditions": "concentrations as high as 3 μM", "procedure": "as §1"}, "[1]": {"tested_on": "24 other chemokine receptors", "assay": "β-arrestin recruitment to all other chemokine receptors (panel, NanoBiT, U87 cells)", "assay_type": "cell-based, human", "conditions": "3 μM", "procedure": "as §1"}, "mouse ACKR3 (mACKR3)": {"molecular_target": "T4, mouse ACKR3 (mACKR3) (Mus musculus, UniProt P56485)", "T4 construct": "expressed in transfected cells; host or cells: U87 cells", "T4 sequence (P56485 whole entry)": "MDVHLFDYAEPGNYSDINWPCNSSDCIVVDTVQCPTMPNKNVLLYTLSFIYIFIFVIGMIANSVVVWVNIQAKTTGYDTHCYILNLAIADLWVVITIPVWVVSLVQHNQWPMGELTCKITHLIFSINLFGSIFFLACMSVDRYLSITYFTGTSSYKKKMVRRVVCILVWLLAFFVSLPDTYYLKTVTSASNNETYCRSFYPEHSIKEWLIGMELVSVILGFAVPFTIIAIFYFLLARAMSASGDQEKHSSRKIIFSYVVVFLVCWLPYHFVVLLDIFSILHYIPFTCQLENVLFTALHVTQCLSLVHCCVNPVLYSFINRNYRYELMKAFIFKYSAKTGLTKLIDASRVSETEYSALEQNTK", "T4 sequence (P49407 whole entry partner)": "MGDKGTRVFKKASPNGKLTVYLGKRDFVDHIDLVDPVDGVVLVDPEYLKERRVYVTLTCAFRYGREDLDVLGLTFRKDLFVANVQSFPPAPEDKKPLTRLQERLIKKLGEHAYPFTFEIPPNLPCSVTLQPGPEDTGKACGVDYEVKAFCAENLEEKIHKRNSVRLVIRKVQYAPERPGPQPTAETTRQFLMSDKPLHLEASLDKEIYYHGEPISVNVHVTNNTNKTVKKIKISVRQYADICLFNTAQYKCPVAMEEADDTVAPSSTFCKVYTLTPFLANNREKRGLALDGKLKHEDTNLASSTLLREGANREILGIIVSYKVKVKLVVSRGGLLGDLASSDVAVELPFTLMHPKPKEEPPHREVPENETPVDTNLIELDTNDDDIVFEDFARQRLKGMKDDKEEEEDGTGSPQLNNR", "assay": "β-arrestin-1 recruitment to mouse ACKR3", "assay_type": "cell-based", "procedure": "as §1"}, "ACKR3 [2]": {"molecular_target": "ACKR3", "assay": "Binding competition | ACKR3 | IC50 (nM)", "description": "Table printed on a drawing sheet, FIG. 1 (continued) H\nHead of the field: Binding competition | ACKR3 | IC50 (nM)\nThe patent's description of the figure: FIG. 1 Opioid peptide library screening on ACKR3, hit confirmation and comparison with classical opioid receptors. (A) The ability of 58 compounds, including natural opioid peptides from the four opioid families, variants thereof and small molecule opioid receptor modulators, to induce β-arrestin-2 recruitment to ACKR3, CXCR4 and CXCR3 in U87 cells at a concentration of 5 μM. Positive control chemokines were used at a concentration of 300 nM. Results are expressed as fold change over vehicle-treated cells and presented as mean±S.D of two replicates (B-F) Comparison of potency and efficacy of ACKR3-activating peptides in inducing β-arrestin-1 recruitment to the opioid receptors MOR (B), DOR (C), KOR (D), NOP (E) and ACKR3 (F) in U87 cells. Results are expressed as percentage of indicated agonist response. […] Results from B—H are presented as mean±S.E.M (n ? 3).\nWhere the first naming reader finds the target: head: Binding competition | ACKR3 | IC50 (nM)"}, "ACKR3 [3]": {"molecular_target": "T5, ACKR3 (Homo sapiens, UniProt P25106)", "assay_type": "cell-based", "set-up": "expressed in transfected cells; host or cells: U87 cells, transient co-transfection of pNBe vectors"}, "KOR": {"molecular_target": "KOR (Homo sapiens, UniProt P41145)", "sequence (P41145 whole entry)": "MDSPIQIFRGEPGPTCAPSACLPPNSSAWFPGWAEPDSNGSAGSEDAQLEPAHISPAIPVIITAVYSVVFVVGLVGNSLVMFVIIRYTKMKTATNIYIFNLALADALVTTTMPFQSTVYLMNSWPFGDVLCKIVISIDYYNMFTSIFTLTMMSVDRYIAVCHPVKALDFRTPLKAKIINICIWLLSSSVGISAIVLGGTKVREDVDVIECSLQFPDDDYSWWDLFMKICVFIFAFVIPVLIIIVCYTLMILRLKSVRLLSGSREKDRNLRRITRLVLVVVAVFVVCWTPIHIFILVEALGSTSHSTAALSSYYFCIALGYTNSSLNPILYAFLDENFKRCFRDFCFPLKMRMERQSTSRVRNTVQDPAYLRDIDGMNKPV", "assay": "β-arrestin-1 recruitment to KOR (NanoBiT, U87 cells)", "assay_type": "cell-based", "set-up": "expressed in transfected cells; host or cells: U87 cells, transient co-transfection of pNBe vectors", "conditions": "concentrations as high as 3 μM", "procedure": "as §1"}, "ACKR3 [4]": {"molecular_target": "T5, ACKR3", "assay": "Binding competition with Alexa Fluor 647-labelled CXCL12 on U87-ACKR3 cells, flow cytometry", "set-up": "expressed in transfected cells; for the receptor comparison in the uptake assay, transient pcDNA3.1)", "conditions": "5 nM CXCL12-AF647, U87-ACKR3 cells", "procedure": "1.3. Binding Competition Assays\nU87-ACKR3 cells were distributed into 96-well plates (1.5×10^5 cells per well) and incubated with a mixture of 5 nM CXCL12-AF647 and unlabelled chemokines or opioid peptides at indicated concentrations for 90 minutes on ice, then washed twice with FACS buffer (PBS, 1% BSA, 0.1% NaN3) at 4° C. Dead cells were excluded using Zombie Green viability dye (BioLegend). ACKR3-negative U87 cells were used to evaluate non-specific binding of CXCL12-AF647. […] The signal obtained for CXCL12-AF647 in the absence of unlabelled chemokines was used to define 100% binding. Ligand binding was quantified by mean fluorescence intensity on a BD FACS Fortessa cytometer (BD Biosciences)."}, "ACKR3 [5]": {"molecular_target": "T5, ACKR3", "assay": "Uptake of fluorescently labelled opioid peptides by ACKR3-expressing U87 cells, imaging flow cytometry", "assay_type": "cell-based", "set-up": "expressed in transfected cells; for the receptor comparison in the uptake assay, transient pcDNA3.1)", "conditions": "saturating concentration of LIH383 (3 μM)", "quoted_text": "Visualization of Fluorescently Labelled Opioid Peptides Uptake by Imagestream\n48 hours post transfection, cells were harvested and treated as described above. Dead cells were excluded using Zombie NIR or Zombie Green viability dye (BioLegend) for FAM-labelled peptides and Cy5-labelled peptides, respectively. Images of 1×10^4 in-focus, living single cells were acquired with an ImageStream MKII imaging flow cytometer (Amnis) using 40× magnification (60× magnification for smNPCs). Samples were analysed using Ideas6.2 software. The number of spots per cell was determined using a mask-based software wizard."}, "ACKR3 [6]": {"molecular_target": "T5, ACKR3", "assay": "ACKR3-mediated depletion of extracellular dynorphin A monitored by its ability to activate KOR (U87-ACKR3 cells)", "assay_type": "cell-based", "set-up": "expressed in transfected cells; for the receptor comparison in the uptake assay, transient pcDNA3.1)", "conditions": "pre-treatment of ACKR3-expressing cells, saturating concentration", "procedure": "as §1"}}, "data": [{"smiles": "CSCC[C@H](NC(=O)[C@H](Cc1ccccc1)NC(=O)CNC(=O)CNC(=O)[C@@H](N)Cc1ccccc1)C(=O)N[C@@H](CCCNC(=N)N)C(=O)N[C@@H](CCCNC(=N)N)C(=O)N[C@@H](CCCCN)C(N)=O", "note": "[LIH383]", "values": [{"measurement": "activation or inhibition of MOR", "setting": "MOR", "value": "no activation or inhibition"}, {"measurement": "activation or inhibition of DOR", "setting": "DOR", "value": "no activation or inhibition"}, {"measurement": "activation or inhibition of NOP", "setting": "NOP", "value": "no activation or inhibition"}, {"measurement": "β-arrestin recruitment to the other chemokine receptors", "setting": "[1]", "value": "no activation or inhibition"}, {"measurement": "agonist activity on mouse ACKR3 compared with human ACKR3", "setting": "mouse ACKR3 (mACKR3)", "value": "equivalent activity on human and mouse ACKR3"}, {"measurement": "IC50", "setting": "ACKR3 [2]", "value": 4, "unit": "nM"}, {"measurement": "EC50 (range in words)", "setting": "ACKR3 [3]", "value": "subnanomolar range"}, {"measurement": "potency relative to known ACKR3 agonists such as compound 18", "setting": "ACKR3 [3]", "value": 20, "unit": "times"}, {"measurement": "activation or inhibition of KOR", "setting": "KOR", "value": "no activation or inhibition"}, {"measurement": "competition with CXCL12-AF647 for ACKR3 binding", "setting": "ACKR3 [4]", "value": "low nanomolar concentrations"}, {"measurement": "dynorphin A-FAM uptake by U87-ACKR3 cells compared to U87-ACKR3 cells pre-incubated with LIH383", "setting": "ACKR3 [5]", "value": "notably higher number of distinguishable vesicle-like structures and mean fluorescent intensity"}, {"measurement": "reversal of the ACKR3-mediated impairment of dynorphin A potency to activate KOR by pre-treatment", "setting": "ACKR3 [6]", "value": "reversed"}]}]}
